For one assay, the target named is human recombinant BACE1 (Homo sapiens (Human), UniProt P56817). Nature of the assay: In vitro enzymatic BACE1 FRET assay. The assay is classed as biochemical. The note with it: read-out: IC50 IP (μM) BACE1 enzyme. Put shortly:
(§1)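 Ni-NTA-purified recombinant enzyme incubated 1 h with 50 nM FRET peptide substrate (fluorophore and quencher flanking the BACE cleavage site). Reaction stopped with Tris buffer raising pH to neutrality; cleavage-released fluorescence read at ex 488/em 590 nm.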

The target in a further assay is human recombinant BACE2 (Homo sapiens (Human), UniProt Q9Y5Z0). Kind of assay: In vitro enzymatic BACE2 FRET assay. It counts as biochemical. The note with it: read-out: IC50 IP (μM) BACE2 enzyme. Put shortly: as §1
Assay [1] concerns Aβ40 in conditioned medium of cells stably expressing Amyloid Precursor Protein (APP). Nature of the assay: In vitro BACE-1 cell-based assay (Aβ40 sandwich ELISA). The note with it: read-out: IC50 IP (μM) BACE1 cell. Put shortly:
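APP-stable cells, pre-cultured 24 h at 37° C in DMEM/10% FBS, were treated 24 h with compound in a 10-point series starting at 100 μM or 10 μM (0.1% DMSO final). Secreted Aβ40 in conditioned medium was measured by pAb40/biotin-6E10 sandwich ELISA with Europium time-resolved fluorescence; IC50 from percent inhibition versus concentration.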

The next assay addresses Recombinant Cat D (Homo sapiens (Human), UniProt P07339). Kind of assay: In vitro enzymatic Cathepsin D (Cat D) FRET assay. It counts as biochemical. The note with it: read-out: IC50 IP (μM) CatD. The essentials: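 Recombinant Cat D expressed in CHO cells, assayed in 0.05 M citrate pH 3.5 with 5 mM CHAPS and 10% DMSO final. Reaction started with 20 nM FRET peptide substrate, incubated one hour, then stopped by Tris buffer to neutral pH; fluorescence read at ex 500/em 580 nm.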

Sequence of human recombinant BACE1 (P56817 46-501): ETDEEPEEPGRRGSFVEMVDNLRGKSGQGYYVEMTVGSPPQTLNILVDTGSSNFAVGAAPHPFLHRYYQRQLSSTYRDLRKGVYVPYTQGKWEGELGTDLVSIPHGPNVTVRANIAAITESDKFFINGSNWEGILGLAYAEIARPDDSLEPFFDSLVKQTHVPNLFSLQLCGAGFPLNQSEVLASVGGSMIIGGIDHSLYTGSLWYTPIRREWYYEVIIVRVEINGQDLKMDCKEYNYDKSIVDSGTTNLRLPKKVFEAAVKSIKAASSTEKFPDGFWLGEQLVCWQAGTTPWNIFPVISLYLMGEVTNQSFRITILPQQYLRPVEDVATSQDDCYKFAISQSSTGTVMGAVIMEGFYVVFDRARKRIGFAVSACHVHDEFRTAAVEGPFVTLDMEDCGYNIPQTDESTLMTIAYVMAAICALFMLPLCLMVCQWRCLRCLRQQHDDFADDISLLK
Sequence of Recombinant Cat D (P07339 65-412): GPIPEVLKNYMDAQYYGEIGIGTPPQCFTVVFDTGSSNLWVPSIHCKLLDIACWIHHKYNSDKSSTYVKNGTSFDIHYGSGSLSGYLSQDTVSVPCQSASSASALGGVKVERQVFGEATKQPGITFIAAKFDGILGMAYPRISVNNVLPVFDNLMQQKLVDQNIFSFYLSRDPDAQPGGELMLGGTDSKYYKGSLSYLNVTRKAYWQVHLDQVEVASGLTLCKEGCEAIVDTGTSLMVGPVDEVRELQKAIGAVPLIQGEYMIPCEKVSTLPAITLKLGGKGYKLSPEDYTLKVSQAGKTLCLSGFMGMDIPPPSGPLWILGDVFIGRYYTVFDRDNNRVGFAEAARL
Sequence of human recombinant BACE2 (Q9Y5Z0 63-518): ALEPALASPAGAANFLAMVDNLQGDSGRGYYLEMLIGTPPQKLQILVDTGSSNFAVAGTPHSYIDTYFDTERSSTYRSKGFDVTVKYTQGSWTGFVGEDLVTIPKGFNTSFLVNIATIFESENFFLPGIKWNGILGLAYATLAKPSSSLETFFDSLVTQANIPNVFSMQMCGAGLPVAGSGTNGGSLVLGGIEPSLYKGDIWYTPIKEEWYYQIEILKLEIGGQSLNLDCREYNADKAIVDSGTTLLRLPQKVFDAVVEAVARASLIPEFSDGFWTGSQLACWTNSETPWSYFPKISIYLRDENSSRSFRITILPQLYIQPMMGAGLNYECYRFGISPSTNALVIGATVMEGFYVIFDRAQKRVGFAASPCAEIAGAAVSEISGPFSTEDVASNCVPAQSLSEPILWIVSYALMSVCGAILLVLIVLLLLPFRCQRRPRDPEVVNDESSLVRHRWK

Broadly, the IC50 is the concentration that gives 50% inhibition. `C#CCOc1cnc2c(Nc3cc(F)c(F)c([C@@]4(C)N=C(N)S[C@@]5(C(N)=O)C[C@H]54)c3)ncnc2c1` [Example 917, (1S,5S,6S)-3-amino-5-(2,3-difluoro-5-((7-(2-propyn-1-yloxy)pyrido[3,2-d]pyrimidin-4-yl)amino)phenyl)-5-methyl-2-thia-4-azabicyclo[4.1.0]hept-3-ene-1-carboxamide]: the IC50 is 0.000633 µM on human recombinant BACE1, 0.0355 µM at human recombinant BACE2, 0.000857 µM in assay [1] and 373 µM on Recombinant Cat D.

Regarding `C[C@]1(c2cc(Nc3ncnc4cc(OCc5ncco5)cnc34)cc(F)c2F)N=C(N)S[C@@]2(C(N)=O)C[C@H]21` [Example 918, (1S,5S,6S)-3-amino-5-(2,3-difluoro-5-((7-(1,3-oxazol-2-ylmethoxy)pyrido[3,2-d]pyrimidin-4-yl)amino)phenyl)-5-methyl-2-thia-4-azabicyclo[4.1.0]hept-3-ene-1-carboxamide], the IC50 on human recombinant BACE1 was found to be 0.000861 µM; on human recombinant BACE2, 0.0389 µM; in assay [1] it was 0.000733 µM; on Recombinant Cat D, 86.9 µM.

Take `C#CCOc1cnc(C(=O)Nc2cc(F)c(F)c([C@@]3(C)N=C(N)S[C@@]4(C(N)=O)C[C@H]43)c2)cn1` [Example 919, (1S,5S,6S)-3-amino-5-(2,3-difluoro-5-(((5-(2-propyn-1-yloxy)-2-pyrazinyl)carbonyl)amino)phenyl)-5-methyl-2-thia-4-azabicyclo[4.1.0]hept-3-ene-1-carboxamide]: the IC50 on human recombinant BACE1 stood at 0.000199 µM; on human recombinant BACE2 it was 0.00428 µM; in assay [1] it was 0.000298 µM; at Recombinant Cat D, 21.2 µM.

`CC#CCOc1cnc2c(Nc3cc(F)c(F)c([C@@]4(C)N=C(N)S[C@@]5(C(N)=O)C[C@H]54)c3)nccc2n1` [Example 920, (1S,5S,6S)-3-amino-5-(5-((2-(2-butyn-1-yloxy)pyrido[3,4-b]pyrazin-5-yl)amino)-2,3-difluorophenyl)-5-methyl-2-thia-4-azabicyclo[4.1.0]hept-3-ene-1-carboxamide]: the IC50 on human recombinant BACE1 was found to be 0.000201 µM; at human recombinant BACE2, 0.00604 µM; in assay [1], 0.000644 µM; on Recombinant Cat D, 1080 µM.

With `CN(C)C(=O)[C@]12C[C@H]1[C@@](C)(c1cc(NC(=O)c3cnc(OCC(F)(F)C(F)F)cn3)cc(F)c1F)N=C(N)S2` [Example 922, (1S,5S,6S)-3-amino-5-(2,3-difluoro-5-(((5-(2,2,3,3-tetrafluoropropoxy)-2-pyrazinyl)carbonyl)amino)phenyl)-N,N,5-trimethyl-2-thia-4-azabicyclo[4.1.0]hept-3-ene-1-carboxamide], the IC50 at human recombinant BACE1 was determined as 0.00155 µM; at human recombinant BACE2 it was 0.00839 µM; in assay [1], 0.00155 µM; on Recombinant Cat D, 1090 µM.

For `CN(C)C(=O)[C@]12C[C@H]1[C@@](C)(c1cc(Nc3ncnc4cc(OCc5ncco5)cnc34)cc(F)c1F)N=C(N)S2` [Example 923, (1S,5S,6S)-3-amino-5-(2,3-difluoro-5-((7-(1,3-oxazol-2-ylmethoxy)pyrido[3,2-d]pyrimidin-4-yl)amino)phenyl)-N,N,5-trimethyl-2-thia-4-azabicyclo[4.1.0]hept-3-ene-1-carboxamide], the IC50 at human recombinant BACE1 is 0.000863 µM; on human recombinant BACE2 it was 0.00253 µM; in assay [1], 0.000338 µM; at Recombinant Cat D it was 121 µM.

Take `C#C[C@H](C)Oc1cnc2c(Nc3cc(F)c(F)c([C@@]4(C)N=C(N)S[C@@]5(C(=O)N(C)C)C[C@H]54)c3)nccc2n1` [Example 925, (1S,5S,6S)-3-amino-5-(2,3-difluoro-5-((2-(((1S)-1-methyl-2-propyn-1-yl)oxy)pyrido[3,4-b]pyrazin-5-yl)amino)phenyl)-N,N,5-trimethyl-2-thia-4-azabicyclo[4.1.0]hept-3-ene-1-carboxamide]: the IC50 was 0.0014 µM at human recombinant BACE1, 0.00387 µM on human recombinant BACE2, 0.00308 µM in assay [1] and greater than 400 µM at Recombinant Cat D.

Consider `CN(C)C(=O)[C@]12C[C@H]1[C@@](C)(c1cc(NC(=O)c3cnc(OCC(F)(F)F)cn3)cc(F)c1F)N=C(N)S2` [Example 926, (1S,5S,6S)-3-amino-5-(2,3-difluoro-5-(((5-(2,2,2-trifluoroethoxy)-2-pyrazinyl)carbonyl)amino)phenyl)-N,N,5-trimethyl-2-thia-4-azabicyclo[4.1.0]hept-3-ene-1-carboxamide], for which the IC50 at human recombinant BACE1 turned out to be 0.0021 µM; at human recombinant BACE2, 0.00491 µM; in assay [1], 0.00113 µM; at Recombinant Cat D, 695 µM.

As for `C#CCOc1cnc(C(=O)Nc2ccc(F)c([C@@]3(C)N=C(N)S[C@@]4(C#N)C[C@H]43)c2)cn1` [Example 927, N-(3-((1S,5S,6S)-3-amino-1-cyano-5-methyl-2-thia-4-azabicyclo[4.1.0]hept-3-en-5-yl)-4-fluorophenyl)-5-(2-propyn-1-yloxy)-2-pyrazinecarboxamide], the half-maximal inhibitory concentration (IC50) on human recombinant BACE1 is 0.000266 µM; at human recombinant BACE2, 0.00448 µM; in assay [1], 0.000667 µM; at Recombinant Cat D, 126 µM.

With `C#CCOc1cnc2c(Nc3ccc(F)c([C@@]4(C)N=C(N)S[C@@]5(C#N)C[C@H]54)c3)ncnc2c1` [Example 928, (1S,5S,6S)-3-amino-5-(2-fluoro-5-((7-(2-propyn-1-yloxy)pyrido[3,2-d]pyrimidin-4-yl)amino)phenyl)-5-methyl-2-thia-4-azabicyclo[4.1.0]hept-3-ene-1-carbonitrile], the IC50 on human recombinant BACE1 was 0.00141 µM; on human recombinant BACE2, 0.0129 µM; in assay [1], 0.00723 µM; on Recombinant Cat D, 439 µM.

Consider `C[C@]1(c2cc(NC(=O)c3ccc(Cl)cn3)ccc2F)N=C(N)S[C@@]2(C#N)C[C@H]21` [Example 929, N-(3-((1S,5S,6S)-3-amino-1-cyano-5-methyl-2-thia-4-azabicyclo[4.1.0]hept-3-en-5-yl)-4-fluorophenyl)-5-chloro 2-pyridinecarboxamide], for which the IC50 on human recombinant BACE1 was 0.000567 µM; at human recombinant BACE2 it was less than 0.00203 µM; in assay [1] it was 0.00363 µM; at Recombinant Cat D it was greater than 400 µM.

For `C#CCOc1cnc2c(Nc3cc(F)c(F)c([C@@]4(C)N=C(N)S[C@@]5(C(=O)N6CCCC6)C[C@H]54)c3)ncnc2c1` [Example 933, N-(3-((1S,5S,6S)-3-amino-5-methyl-1-(1-pyrrolidinylcarbonyl)-2-thia-4-azabicyclo[4.1.0]hept-3-en-5-yl)-4,5-difluorophenyl)-7-(2-propyn-1-yloxy)pyrido[3,2-d]pyrimidin-4-amine], the IC50 was 0.000526 µM on human recombinant BACE1, 0.00491 µM at human recombinant BACE2, 0.000709 µM in assay [1] and 315 µM at Recombinant Cat D.

Regarding `C#CCOc1cnc(C(=O)Nc2cc(F)c(F)c([C@@]3(C)N=C(N)S[C@@]4(C(=O)N5CCCC5)C[C@H]43)c2)cn1` [Example 934, N-(3-((1S,5S,6S)-3-amino-5-methyl-1-(1-pyrrolidinylcarbonyl)-2-thia-4-azabicyclo[4.1.0]hept-3-en-5-yl)-4,5-difluorophenyl)-5-(2-propyn-1-yloxy)-2-pyrazinecarboxamide], the IC50 was 0.000393 µM on human recombinant BACE1, less than 0.00203 µM at human recombinant BACE2, 0.000378 µM in assay [1] and 12.9 µM on Recombinant Cat D.

With `C[C@]1(c2cc(NC(=O)c3ccc(Cl)cn3)cc(F)c2F)N=C(N)S[C@@]2(C(=O)N3CCCC3)C[C@H]21` [Example 935, N-(3-((1S,5S,6S)-3-amino-5-methyl-1-(1-pyrrolidinylcarbonyl)-2-thia-4-azabicyclo[4.1.0]hept-3-en-5-yl)-4,5-difluorophenyl)-5-chloro-2-pyridinecarboxamide], the IC50 at human recombinant BACE1 is 0.000498 µM; at human recombinant BACE2, less than 0.00203 µM; in assay [1], 0.000889 µM; on Recombinant Cat D, 254 µM.

In the case of `C[C@]1(c2cc(Nc3ncnc4cc(OCc5ncco5)cnc34)cc(F)c2F)N=C(N)S[C@@]2(C(=O)N3CCCC3)C[C@H]21` [Example 936, N-(3-((1S,5S,6S)-3-amino-5-methyl-1-(1-pyrrolidinylcarbonyl)-2-thia-4-azabicyclo[4.1.0]hept-3-en-5-yl)-4,5-difluorophenyl)-7-(1,3-oxazol-2-ylmethoxy)pyrido[3,2-d]pyrimidin-4-amine], the IC50 was found to be 0.00385 µM on human recombinant BACE1, 0.0182 µM on human recombinant BACE2, 0.000847 µM in assay [1] and 115 µM on Recombinant Cat D.

Regarding `C#C[C@H](C)Oc1cnc2c(Nc3cc(F)c(F)c([C@@]4(C)N=C(N)S[C@@]5(C(=O)N6CCCC6)C[C@H]54)c3)nccc2n1` [Example 937, N-(3-((1S,5S,6S)-3-amino-5-methyl-1-(1-pyrrolidinylcarbonyl)-2-thia-4-azabicyclo[4.1.0]hept-3-en-5-yl)-4,5-difluorophenyl)-2-(((1S)-1-methyl-2-propyn-1-yl)oxy)pyrido[3,4-b]pyrazin-5-amine], the 50% inhibitory concentration (IC50) at human recombinant BACE1 worked out at 0.00207 µM; at human recombinant BACE2 it was 0.0102 µM; in assay [1], 0.00624 µM; on Recombinant Cat D it was 872 µM.

With `C[C@H](Oc1cnc2c(Nc3cc(F)c(F)c([C@@]4(C)N=C(N)S[C@@]5(C(=O)N6CCCC6)C[C@H]54)c3)nccc2n1)c1ncco1` [Example 938, N-(3-((1S,5S,6S)-3-amino-5-methyl-1-(1-pyrrolidinylcarbonyl)-2-thia-4-azabicyclo[4.1.0]hept-3-en-5-yl)-4,5-difluorophenyl)-2-((1S)-1-(1,3-oxazol-2-yl)ethoxy)pyrido[3,4-b]pyrazin-5-amine], the IC50 on human recombinant BACE1 is 0.00129 µM; at human recombinant BACE2, 0.0633 µM; in assay [1], 0.00508 µM; at Recombinant Cat D, 162 µM.
